Experimental data: patent publication US11318079B2, “Polyhydroxylated (1-phenyl-2-phenyl) ethylene derivatives as an anti-ageing and photoprotective agent” (L'OREAL, priority 2015, dated 2022)
Read-outs that look alike come from different tables or passages of the source.

Legend:
[1] = system: AMPK pathway (pACC, phosphorylated Acetyl-CoA Carboxylase) in NHEK cells; experiment: Evaluation on AMPK pathway in NHEK cells by pACC immunolabeling; assay type: cell-based, Human; conditions: for % control (labeling % of the pACC compared to the control brought back to 100%) / global increase of the pACC labelling: NHEK cells, Compound 4 at 10 μM; for % control (labeling % of the pACC compared to the control brought back to 100%): 48 hours incubation, n=3, AICAR at 500 μM (0.5% DMSO); for global increase of the pACC labelling: AICAR reference at 500 μM
Procedure: Evaluation of the effect of compound 4 on the AMPK pathway in NHEK cells (Normal Human Epidermal Keratinocytes) by analysis of the pACC (Acetyl-CoA Carboxylase) phosphorylated form expression. This effect is studied by fluorescent immunolabeling and image analysis.
Keratinocytes are seeded in 96-well microplates and grown for 24 hours in a culture medium. The medium is then replaced by the test medium and cells are grown for 24 supplementary hours. Finally, the medium is replaced by the test medium comprising or not (control) the tested compounds, the reference (AICAR) or the control solvent (0.1% or 0.5% DMSO) then the cells are incubated for 48 hours. All the test conditions were carried out with n=3.
After incubation, the immunolabeling is done. The results are expressed in labeling % of the pACC compared to the control brought back to 100%.

[2] = system: keratinocytes of the HaCaT line; experiment: Production of reactive oxygen species (ROS) induced by UVA in HaCaT keratinocytes (DHR123 or DCFH-DA probe); assay type: cell-based; conditions: for EC50: Homo sapiens, light or radiation study, 24 h incubation, UVA exposure, concentration allowing 50% photoprotection (500 μM vitamin C = 100%); for ROS production decrease: UVA-induced ROS
Procedure: The decrease of the production of reactive oxygen species in keratinocytes of the HaCaT line is evaluated by detection, using the Dihydrorhodamine 123 (DHR123) probe or using Dichloro-dihydro-fluorescein diacetate (DCFH-DA) probe, the ROS production is induced by exposition to UVA after 24 h of incubation in the presence of the compounds to be tested. The DHR123 and DCFH-DA probes are indicators of the presence of reactive oxygen species (ROS). HaCaT keratinocytes in monolayer culture are placed in the presence of a solution of a compound to be tested at various concentrations (0.4-200 μM) in the medium. After 24 h of incubation, the cells are exposed to UVA, then incubated with the DHR123 probe or DCFH-DA probe for 1 h. The fluorescence of the probe is then measured. A viability test is carried out in parallel in order to discard the cytotoxic compounds. In parallel, the keratinocytes are incubated with vitamin C acting as a positive control and a standard: an incubation with 500 μM of vitamin C corresponds to 100% photoprotection. The dose-effect curves of the fluorescence detected as a function of the concentration of compounds (to be tested) present in the medium make it possible to calculate the effective dose EC50 which corresponds to the concentration of compound (to be tested) that allows 50% photoprotection of the keratinocytes.

[3] = DHR123 probe, read-out: EC50 -DHR123
[4] = DCFH-DA probe, read-out: EC50- DCFH-DA

SMILES	% control (labeling % of the pACC compared to the control brought back to 100%) [1] [%]	global increase of the pACC labelling [1] [%]	EC50 [2, 3] [µM]	ROS production decrease [2]	activation of the AMPK route in normal human keratinocytes ([1]; 10 μM)	EC50 [2, 4] [µM]
NC(=O)c1ncn([C@@H]2O[C@H](CO)[C@@H](O)[C@H]2O)c1N [AICAR, reference compound]	117	17	–	–	–	–
COc1cc(/C=C/c2ccc(OC)c(OC)c2)ccc1O [Compound 4]	119	19	100	Yes	capable to active the AMPK route	–
COc1cc(/C=C/c2ccc(OC(C)=O)c(OC)c2)ccc1O [Compound 5]	–	–	–	Yes	–	29
COc1ccc(/C=C/c2ccc(O)c(OC)c2)cc1 [Compound 1]	–	–	36	Yes	–	20
